# According to patent US20170001990A1 (Genentech, Inc., priority 2014, published 2017):
# Molecular target: Human recombinant carboxy-terminal his-tagged LDHA (amino acids 2-332) (Homo sapiens, UniProt P00338)
# Assay: LDHA enzyme inhibition assay (NADH fluorescence)
# Conditions: LDHA IC50 (μM), 1 nM LDHA, NADH and pyruvate, stereochemistry of tested sample given
# Method: Test compounds were diluted in 100% DMSO with 1:3 serial dilutions. […] For the enzyme reaction, serially diluted compounds were added to a mixture of enzyme and NADH. […] Following the baseline read, pyruvate was added to the assay plates and the plates were read with excitation 340 nm and emission 480 nm for 10 minutes every 2.5 seconds. A suitable linear timeframe was selected (150-400 s) to calculate the slope of each concentration tested. The raw data were fitted to 4-parameter dose-response curves using the following equation:
# fit=(A+((B−A)/(1+((C/x)̂D))))
# inv=(C/((((B−A)/(y−A))−)̂(1/D)))
# res=(y−fit) • where A=minimum y, B=maximum y, C=50% y max, and D=slope factor.
# The curve bottom was set to the background rate (initial 5 second recording prior to addition of pyruvate) and curve top was set to no inhibitor (DMSO only) control wells rate.
# The compounds of the present invention were tested for their capacity to inhibit LDHA activity and activation as described in the enzyme inhibition assay described above.
row,IC50,Compound
1,0.072 µM,"COc1cc(F)cc(Cc2cccc(C3(c4ccsc4)CC(=O)C(Sc4ccccc4Cl)C(=O)N3)n2)c1 (single isomer, unassigned) [Example 156, 3-(2-chlorophenyl)sulfanyl-6-[6-[(3-fluoro-5-methoxy-phenyl)methyl]-2-pyridyl]-6-(3-thienyl) piperidine-2,4-dione]"
2,0.03 µM,"O=C1CC(c2ccsc2)(c2cccc(OC3CCCCC3)n2)NC(=O)C1Sc1ccccc1Cl (single isomer, unassigned) [Example 157, 3-(2-chlorophenyl)sulfanyl-6-[6-(cyclohexoxy)-2-pyridyl]-6-(3-thienyl) piperidine-2,4-dione]"
3,0.018 µM,"CC1(COc2cccc(C3(c4ccsc4)CC(=O)C(Sc4ccccc4Cl)C(=O)N3)n2)CC1 (single isomer, unassigned) [Example 158, 3-(2-chlorophenyl)sulfanyl-6-[6-[(1-methylcyclo-propyl)methoxy]-2-pyridyl]-6-(3-thienyl)piperidine-2,4-dione]"
4,0.004 µM,"CC(Oc1cccc(C2(c3ccsc3)CC(=O)C(Sc3ccccc3Cl)C(=O)N2)n1)C1CC1 (single isomer, unassigned) [Example 159, 3-((2-chlorophenyl)thio)-6-(6-(1-cyclopropyl-ethoxy)pyridin-2-yl)-6-(thiophen-3-yl)piperidine-2,4-dione]"
5,0.008 µM,"O=C1CC(c2ccsc2)(c2cccc(Sc3ccc(F)cc3)n2)NC(=O)C1Sc1ccccc1Cl (single isomer, unassigned) [Example 160, 3-(2-chlorophenyl)sulfanyl-6-[6-(4-fluorophenyl)sulfanyl-2-pyridyl]-6-(3-thienyl)piperidine-2,4-dione]"
6,0.019 µM,"O=C1CC(c2ccsc2)(c2cccc(OCCC3CCCCC3)n2)NC(=O)C1Sc1ccccc1Cl (single isomer, unassigned) [Example 161, 3-(2-chlorophenyl)sulfanyl-6-[6-(2-cyclohexylethoxy)-2-pyridyl]-6-(3-thienyl) piperidine-2,4-dione]"
7,0.194 µM,"O=C1CC(c2ccsc2)(c2cccc(OCC3CCOCC3)n2)NC(=O)C1Sc1ccccc1Cl (single isomer, unassigned) [Example 163, 3-((2-chlorophenyl)thio)-6-(6-((tetrahydro-2H-pyran-4-yl)methoxy)pyridin-2-yl)-6-(thiophen-3-yl)piperidine-2,4-dione]"
8,0.004 µM,"O=C1CC(c2ccsc2)(c2cccc(OCC3CC(F)(F)C3)n2)NC(=O)C1Sc1ccccc1Cl (single isomer, unassigned) [Example 165]"
9,0.19 µM,"O=C1CC(c2ccsc2)(c2cccc(OCCC3CCC3)n2)NC(=O)C1Sc1ccccc1Cl (single isomer, unassigned) [Example 168, 3-(2-chlorophenyl)sulfanyl-6-[6-(2-cyclobutylethoxy)-2-pyridyl]-6-(3-thienyl) piperidine-2,4-dione]"
10,0.101 µM,"COc1cc(F)cc(Cc2cccc(C3(c4ccsc4)CC(=O)C(Sc4ccccc4Cl)C(=O)N3)n2)c1 (single isomer, unassigned) [Example 171, 3-(2-chlorophenyl)sulfanyl-6-[6-[(3-fluoro-5-methoxy-phenyl)methyl]-2-pyridyl]-6-(3-thienyl) piperidine-2,4-dione]"
11,0.056 µM,"O=C1CC(c2ccsc2)(c2cccc(Oc3ccccc3Br)n2)NC(=O)C1Sc1ccccc1Cl (single isomer, unassigned) [Example 172, 6-[6-(2-bromophenoxy)-2-pyridyl]-3-(2-chloro-phenyl)sulfanyl-6-(3-thienyl)piperidine-2,4-dione]"
12,0.01 µM,"O=C1CC(c2ccsc2)(c2cccc(Oc3cc(F)cc(CO)c3)n2)NC(=O)C1Sc1ccccc1Cl (single isomer, unassigned) [Example 176, 3-(2-chlorophenyl)sulfanyl-6-[6-[3-fluoro-5-(hydroxymethyl)phenoxy]-2-pyridyl]-6-(3-thienyl) piperidine-2,4-dione]"
13,0.002 µM,"O=C1CC(c2ccsc2)(c2cccc(Cc3ccccc3)n2)NC(=O)C1Sc1ccccc1Cl (single isomer, unassigned) [Example 180, 6-(6-benzyl-2-pyridyl)-3-(2-chlorophenyl)sulfanyl-6-(3-thienyl)piperidine-2,4-dione]"
14,0.006 µM,"O=C1CC(c2ccsc2)(c2cccc(OC3CCCCC3)n2)NC(=O)C1Sc1ccccc1Cl (single isomer, unassigned) [Example 181, 3-(2-chlorophenyl)sulfanyl-6-[6-(cyclohexoxy)-2-pyridyl]-6-(3-thienyl) piperidine-2,4-dione]"
15,0.056 µM,"CC1(COc2cccc(C3(c4ccsc4)CC(=O)C(Sc4ccccc4Cl)C(=O)N3)n2)CC1 (single isomer, unassigned) [Example 182, 3-(2-chlorophenyl)sulfanyl-6-[6-[(1-methylcyclo-propyl)methoxy]-2-pyridyl]-6-(3-thienyl)piperidine-2,4-dione]"
16,0.002 µM,"CC(Oc1cccc(C2(c3ccsc3)CC(=O)C(Sc3ccccc3Cl)C(=O)N2)n1)C1CC1 (single isomer, unassigned) [Example 184, 3-(2-chlorophenyl)sulfanyl-6-[6-(1-cyclopropylethoxy)-2-pyridyl]-6-(3-thienyl) piperidine-2,4-dione]"
17,0.055 µM,"O=C1CC(c2ccsc2)(c2cccc(OCCC3CCCCC3)n2)NC(=O)C1Sc1ccccc1Cl (single isomer, unassigned) [Example 185, 3-(2-chlorophenyl)sulfanyl-6-[6-(2-cyclohexylethoxy)-2-pyridyl]-6-(3-thienyl) piperidine-2,4-dione]"
18,0.025 µM,"O=C1CC(c2ccsc2)(c2cccc(OCC3CCOCC3)n2)NC(=O)C1Sc1ccccc1Cl (single isomer, unassigned) [Example 187, 3-(2-chlorophenyl)sulfanyl-6-[6-(tetrahydropyran-4-ylmethoxy)-2-pyridyl]-6-(3-thienyl)piperidine-2,4-dione]"
19,0.232 µM,"O=C1CCC(COc2cccc(C3(c4ccsc4)CC(=O)C(Sc4ccccc4Cl)C(=O)N3)n2)O1 (single isomer, unassigned) [Example 192, 3-(2-chlorophenyl)sulfanyl-6-[6-[(5-oxotetrahydrofuran-2-yl)methoxy]-2-pyridyl]-6-(3-thienyl)piperidine-2,4-dione]"
20,0.059 µM,"O=C1CCC(COc2cccc(C3(c4ccsc4)CC(=O)C(Sc4ccccc4Cl)C(=O)N3)n2)O1 (single isomer, unassigned) [Example 193, 3-(2-chlorophenyl)sulfanyl-6-[6-[(5-oxotetrahydrofuran-2-yl)methoxy]-2-pyridyl]-6-(3-thienyl)piperidine-2,4-dione]"
21,0.005 µM,"O=C1CC(c2ccsc2)(c2cccc(OCC3CCCC3)n2)NC(=O)C1Sc1ccccc1Cl (single isomer, unassigned) [Example 194, 3-(2-chlorophenyl)sulfanyl-6-[6-(cyclopentyl-methoxy)-2-pyridyl]-6-(3-thienyl)piperidine-2,4-dione]"
22,0.143 µM,"O=C1CC(c2ccsc2)(c2cccc(OCC3CCCO3)n2)NC(=O)C1Sc1ccccc1Cl (single isomer, unassigned) [Example 195, 3-(2-chlorophenyl)sulfanyl-6-[6-(tetrahydrofuran-2-ylmethoxy)-2-pyridyl]-6-(3-thienyl)piperidine-2,4-dione]"
23,0.036 µM,"O=C1CC(c2ccsc2)(c2cccc(OCC3CC(F)(F)C3)n2)NC(=O)C1Sc1ccccc1Cl (single isomer, unassigned) [Example 196, 3-(2-chlorophenyl)sulfanyl-6-[6-[(3,3-difluorocyclo-butyl)methoxy]-2-pyridyl]-6-(3-thienyl)piperidine-2,4-dione]"
24,0.01 µM,"O=C1CC(c2ccsc2)(c2cccc(Oc3ccccc3Br)n2)NC(=O)C1Sc1ccccc1Cl (single isomer, unassigned) [Example 197, 6-[6-(2-bromophenoxy)-2-pyridyl]-3-(2-chlorophenyl) sulfanyl-6-(3-thienyl) piperidine-2,4-dione]"
25,0.177 µM,"O=C1CC(c2ccsc2)(c2cccc(Sc3ccc(F)cc3)n2)NC(=O)C1Sc1ccccc1Cl (single isomer, unassigned) [Example 198, 3-(2-chlorophenyl)sulfanyl-6-[6-(4-fluorophenyl)sulfanyl-2-pyridyl]-6-(3-thienyl)piperidine-2,4-dione]"
26,0.012 µM,"O=C1CC(c2ccsc2)(c2cccc(OCC3COC3)n2)NC(=O)C1Sc1ccccc1Cl (single isomer, unassigned) [Example 199, 3-(2-chlorophenyl)sulfanyl-6-[6-(oxetan-3-ylmethoxy)-2-pyridyl]-6-(3-thienyl) piperidine-2,4-dione]"
27,0.229 µM,"CCOCCOc1cccc(C2(c3ccsc3)CC(=O)C(Sc3ccccc3Cl)C(=O)N2)n1 (single isomer, unassigned) [Example 200, 3-(2-chlorophenyl)sulfanyl-6-[6-(2-ethoxyethoxy)-2-pyridyl]-6-(3-thienyl) piperidine-2,4-dione]"
28,0.037 µM,"COCCCOc1cccc(C2(c3ccsc3)CC(=O)C(Sc3ccccc3Cl)C(=O)N2)n1 (single isomer, unassigned) [Example 201, 3-(2-chlorophenyl)sulfanyl-6-[6-(3-methoxypropoxy)-2-pyridyl]-6-(3-thienyl) piperidine-2,4-dione]"
29,0.018 µM,"O=C1CC(c2ccsc2)(c2cccc(Oc3cncc(F)c3)n2)NC(=O)C1Sc1ccccc1Cl (single isomer, unassigned) [Example 202, 3-(2-chlorophenyl)sulfanyl-6-[6-[(5-fluoro-3-pyridyl)oxy]-2-pyridyl]-6-(3-thienyl) piperidine-2,4-dione]"

row,Compound,IC50
1,"CC(C)(O)CCOc1cccc(C2(c3ccsc3)CC(=O)C(Sc3ccccc3Cl)C(=O)N2)n1 (single isomer, unassigned) [Example 155, 3-(2-chlorophenyl)sulfanyl-6-[6-(3-hydroxy-3-methyl-butoxy)-2-pyridyl]-6-(3-thienyl)piperidine-2,4-dione]",0.025 µM
2,"CC(C)(O)CCOc1cccc(C2(c3ccsc3)CC(=O)C(Sc3ccccc3Cl)C(=O)N2)n1 (single isomer, unassigned) [Example 170, 3-(2-chlorophenyl)sulfanyl-6-[6-(3-hydroxy-3-methyl-butoxy)-2-pyridyl]-6-(3-thienyl)piperidine-2,4-dione]",0.145 µM
